Results published in PubChem BioAssay (NCI).
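1) Cells in 96-well plates. 2) Compound, 48 h, 5 concentrations. 3) Linear interpolation between surrounding doses. 4) Unreached endpoint = highest concentration. At the GI50, growth is halved. Definition used: TGI = concentration required for complete inhibition of growth.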

Columns and labels:
Assay in all cases: NCI anticancer screen, dose series, 48 h
[1] = system: 786-0 renal
[2] = system: A498 renal
[3] = system: A549 NSCLC
[4] = system: ACHN renal
[5] = system: BT-549 breast
[6] = system: CAKI-1 renal
[7] = system: CCRF-CEM leukemia
[8] = system: COLO 205 colon
[9] = system: DU-145 prostate
[10] = system: EKVX NSCLC
[11] = system: HCC-2998 colon
[12] = system: HCT-116 colon
[13] = system: HCT-15 colon
[14] = system: HL-60(TB) leukemia
[15] = system: HOP-62 NSCLC
[16] = system: HOP-92 NSCLC
[17] = system: HS 578T breast
[18] = system: HT29 colon
[19] = system: IGROV1 ovarian
[20] = system: K-562 leukemia
[21] = system: KM12 colon
[22] = system: LOX IMVI melanoma
[23] = system: M14 melanoma
[24] = system: MALME-3M melanoma
[25] = system: MCF7 breast
[26] = system: MDA-MB-231 breast
[27] = system: MDA-MB-435
[28] = system: MOLT-4 leukemia
[29] = system: NCI-H226 lung
[30] = system: NCI-H460 lung
[31] = system: NCI-H522 lung
[32] = system: NCI/ADR-RES ovarian
[33] = system: OVCAR-3 ovarian
[34] = system: OVCAR-4 ovarian
[35] = system: OVCAR-5 ovarian
[36] = system: OVCAR-8 ovarian
[37] = system: PC-3 prostate
[38] = system: RPMI-8226 leukemia
[39] = system: RXF 393 renal
[40] = system: SF-268 CNS
[41] = system: SF-295 CNS
[42] = system: SF-539 CNS
[43] = system: SK-MEL-2 melanoma
[44] = system: SK-MEL-28 melanoma
[45] = system: SK-MEL-5 melanoma
[46] = system: SK-OV-3 ovarian
[47] = system: SN12C renal
[48] = system: SNB-19 CNS
[49] = system: SNB-75 CNS
[50] = system: SR leukemia
[51] = system: SW-620 colon
[52] = system: T-47D breast
[53] = system: TK-10 renal
[54] = system: U251 CNS
[55] = system: UACC-257 melanoma
[56] = system: UACC-62 melanoma
[57] = system: UO-31 renal

CC[C@@H](CO)Nc1ccc2ncc(C#Cc3cncc(C(=O)Nc4ccc(CN5CCN(C)CC5)c(C(F)(F)F)c4)c3)n2n1
GI50 [1]: 0.282 µM
TGI [1]: 0.986 µM
GI50 [2]: 1.06 µM
TGI [2]: 1.92 µM
GI50 [3]: 0.199 µM
TGI [3]: 0.768 µM
GI50 [4]: 0.363 µM
TGI [4]: 1.18 µM
GI50 [5]: 0.614 µM
TGI [5]: 1.35 µM
GI50 [6]: 0.142 µM
TGI [6]: 0.458 µM
GI50 [7]: 0.0264 µM
TGI [7]: 1.31 µM
GI50 [8]: 0.0892 µM
TGI [8]: 0.196 µM
GI50 [9]: 0.144 µM
TGI [9]: 0.543 µM
GI50 [10]: 0.142 µM
TGI [10]: 1.05 µM
GI50 [11]: 0.238 µM
TGI [11]: 0.858 µM
GI50 [12]: 0.0661 µM
TGI [12]: 0.355 µM
GI50 [13]: 0.583 µM
TGI [13]: 1.7 µM
GI50 [14]: 0.104 µM
TGI [14]: 0.462 µM
GI50 [15]: 0.178 µM
TGI [15]: 0.909 µM
GI50 [16]: 0.067 µM
TGI [16]: 0.261 µM
GI50 [17]: 0.0598 µM
TGI [17]: 0.451 µM
GI50 [18]: 0.157 µM
TGI [18]: 0.655 µM
GI50 [19]: 0.077 µM
TGI [19]: 0.365 µM
GI50 [20]: 0.005 µM
TGI [20]: 1.64 µM
GI50 [21]: 0.00927 µM
TGI [21]: 0.793 µM
GI50 [22]: 0.0634 µM
TGI [22]: 0.258 µM
GI50 [23]: 0.118 µM
TGI [23]: 0.36 µM
GI50 [24]: 0.125 µM
TGI [24]: 0.544 µM
GI50 [25]: 0.0469 µM
TGI [25]: 0.409 µM
GI50 [26]: 0.0482 µM
TGI [26]: 0.5 µM
GI50 [27]: 0.104 µM
TGI [27]: 0.634 µM
GI50 [28]: 0.0438 µM
TGI [28]: 0.693 µM
GI50 [29]: 0.0796 µM
TGI [29]: 0.635 µM
GI50 [30]: 0.163 µM
TGI [30]: 0.541 µM
GI50 [31]: 0.0592 µM
TGI [31]: 0.157 µM
GI50 [32]: 5.58 µM
TGI [32]: 18.4 µM
GI50 [33]: 0.167 µM
TGI [33]: 0.954 µM
GI50 [34]: 0.145 µM
TGI [34]: 0.982 µM
GI50 [35]: 0.236 µM
TGI [35]: 1.31 µM
GI50 [36]: 0.169 µM
TGI [36]: 0.627 µM
GI50 [37]: 0.272 µM
TGI [37]: 1.79 µM
GI50 [38]: 0.254 µM
TGI [38]: 1.07 µM
GI50 [39]: 0.11 µM
TGI [39]: 0.333 µM
GI50 [40]: 0.109 µM
TGI [40]: 0.554 µM
GI50 [41]: 0.413 µM
TGI [41]: 1.39 µM
GI50 [42]: 0.032 µM
TGI [42]: 0.172 µM
GI50 [43]: 0.115 µM
TGI [43]: 0.339 µM
GI50 [44]: 0.278 µM
TGI [44]: 1.1 µM
GI50 [45]: 0.681 µM
TGI [45]: 1.35 µM
GI50 [46]: 0.622 µM
TGI [46]: 2.15 µM
GI50 [47]: 0.0452 µM
TGI [47]: 0.605 µM
GI50 [48]: 0.203 µM
TGI [48]: 1.24 µM
GI50 [49]: 0.0206 µM
TGI [49]: 0.108 µM
GI50 [50]: 0.034 µM
TGI [50]: 0.534 µM
GI50 [51]: 0.0813 µM
TGI [51]: 0.281 µM
GI50 [52]: 0.582 µM
TGI [52]: 1.59 µM
GI50 [53]: 0.343 µM
TGI [53]: 1.18 µM
GI50 [54]: 0.243 µM
TGI [54]: 0.805 µM
GI50 [55]: 0.39 µM
TGI [55]: 1.25 µM
GI50 [56]: 0.284 µM
TGI [56]: 1.1 µM
GI50 [57]: 0.917 µM
TGI [57]: 1.93 µM
